Measured values taken from the kinase profiling compilation of Christmann-Franck et al. (2016).

Key:
Assay in all cases: KINOMEscan competition binding
Details in all cases: compound 10.0 µM
[1] = target: SGK110 (human) (UniProt P0C264)
[2] = target: PKMYT1 (human) (UniProt Q99640)
[3] = target: FER (human) (UniProt P16591)
[4] = target: ULK3 (human) (UniProt Q6PHR2)
[5] = target: PIK3C2B (human) (UniProt O00750)
[6] = target: BMPR1A (human) (UniProt P36894)
[7] = target: MAPK13 (human) (UniProt O15264)
[8] = target: PAK1 (human) (UniProt Q13153)
[9] = target: ERBB4 (human) (UniProt Q15303)
[10] = target: PAK6 (human) (UniProt Q9NQU5)
[11] = target: CDK14 (human) (UniProt O94921)
[12] = target: RAF1 (human) (UniProt P04049)
[13] = target: ALK (human) (UniProt Q9UM73)
[14] = target: CSNK1G2 (human) (UniProt P78368)
[15] = target: STK36 (human) (UniProt Q9NRP7)
[16] = target: MAPK7 (human) (UniProt Q13164)
[17] = target: PIK3CD (human) (UniProt O00329)
[18] = test system: ABL1 (human), P00519 [Q252H]
[19] = target: INSRR (human) (UniProt P14616)
[20] = target: MAP3K3 (human) (UniProt Q99759)
[21] = target: MAP2K2 (human) (UniProt P36507)
[22] = target: ZAP70 (human) (UniProt P43403)
[23] = target: MYO3B (human) (UniProt Q8WXR4)
[24] = target: CDK11A (human) (UniProt Q9UQ88)
[25] = target: PAK2 (human) (UniProt Q13177)
[26] = target: BMX (human) (UniProt P51813)
[27] = test system: EGFR (human), P00533 [L858R]
[28] = target: PRKACA (human) (UniProt P17612)
[29] = target: MAP3K12 (human) (UniProt Q12852)
[30] = target: BMPR2 (human) (UniProt Q13873)
[31] = test system: RET (human), P07949 [V804M]
[32] = target: EPHA1 (human) (UniProt P21709)
[33] = target: ROS1 (human) (UniProt P08922)
[34] = target: PIK3CB (human) (UniProt P42338)
[35] = target: SRC (human) (UniProt P12931)
[36] = test system: ABL1 (human), P00519 [F317L]
[37] = target: SRMS (human) (UniProt Q9H3Y6)
[38] = target: AKT3 (human) (UniProt Q9Y243)
[39] = target: MERTK (human) (UniProt Q12866)
[40] = target: PAK7 (human) (UniProt Q9P286)
[41] = target: STK38L (human) (UniProt Q9Y2H1)
[42] = test system: EGFR (human), P00533 [A750P; 747-749 del]

ZAP70 (human), sequence (P43403 whole entry, looked up): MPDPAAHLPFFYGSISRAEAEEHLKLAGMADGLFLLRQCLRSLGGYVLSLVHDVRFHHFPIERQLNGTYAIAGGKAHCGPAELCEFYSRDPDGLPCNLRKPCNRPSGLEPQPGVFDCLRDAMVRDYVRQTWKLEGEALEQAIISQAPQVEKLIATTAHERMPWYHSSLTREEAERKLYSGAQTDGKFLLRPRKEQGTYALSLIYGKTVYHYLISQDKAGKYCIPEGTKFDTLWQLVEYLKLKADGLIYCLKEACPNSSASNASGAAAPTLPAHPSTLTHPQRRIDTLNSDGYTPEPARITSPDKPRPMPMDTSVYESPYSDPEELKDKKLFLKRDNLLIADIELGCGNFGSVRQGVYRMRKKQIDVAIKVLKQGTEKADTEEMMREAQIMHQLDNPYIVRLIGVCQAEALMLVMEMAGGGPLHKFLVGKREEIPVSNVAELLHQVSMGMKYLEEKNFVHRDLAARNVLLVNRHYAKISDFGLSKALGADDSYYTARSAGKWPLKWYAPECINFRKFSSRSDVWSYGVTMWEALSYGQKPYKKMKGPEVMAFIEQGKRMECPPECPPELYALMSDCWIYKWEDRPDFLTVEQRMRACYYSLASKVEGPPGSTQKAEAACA
MAPK13 (human), sequence (O15264 whole entry, looked up): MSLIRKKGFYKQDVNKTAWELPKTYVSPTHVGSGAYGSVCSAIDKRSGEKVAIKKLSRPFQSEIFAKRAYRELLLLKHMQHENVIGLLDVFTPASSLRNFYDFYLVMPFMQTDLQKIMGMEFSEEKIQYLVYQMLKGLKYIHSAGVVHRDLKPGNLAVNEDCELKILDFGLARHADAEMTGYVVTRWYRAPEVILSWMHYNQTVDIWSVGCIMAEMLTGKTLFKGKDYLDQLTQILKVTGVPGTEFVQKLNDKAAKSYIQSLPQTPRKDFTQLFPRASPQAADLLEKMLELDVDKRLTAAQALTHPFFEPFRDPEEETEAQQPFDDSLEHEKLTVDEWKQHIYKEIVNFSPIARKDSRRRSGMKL
PIK3C2B (human), sequence (O00750 whole entry, looked up): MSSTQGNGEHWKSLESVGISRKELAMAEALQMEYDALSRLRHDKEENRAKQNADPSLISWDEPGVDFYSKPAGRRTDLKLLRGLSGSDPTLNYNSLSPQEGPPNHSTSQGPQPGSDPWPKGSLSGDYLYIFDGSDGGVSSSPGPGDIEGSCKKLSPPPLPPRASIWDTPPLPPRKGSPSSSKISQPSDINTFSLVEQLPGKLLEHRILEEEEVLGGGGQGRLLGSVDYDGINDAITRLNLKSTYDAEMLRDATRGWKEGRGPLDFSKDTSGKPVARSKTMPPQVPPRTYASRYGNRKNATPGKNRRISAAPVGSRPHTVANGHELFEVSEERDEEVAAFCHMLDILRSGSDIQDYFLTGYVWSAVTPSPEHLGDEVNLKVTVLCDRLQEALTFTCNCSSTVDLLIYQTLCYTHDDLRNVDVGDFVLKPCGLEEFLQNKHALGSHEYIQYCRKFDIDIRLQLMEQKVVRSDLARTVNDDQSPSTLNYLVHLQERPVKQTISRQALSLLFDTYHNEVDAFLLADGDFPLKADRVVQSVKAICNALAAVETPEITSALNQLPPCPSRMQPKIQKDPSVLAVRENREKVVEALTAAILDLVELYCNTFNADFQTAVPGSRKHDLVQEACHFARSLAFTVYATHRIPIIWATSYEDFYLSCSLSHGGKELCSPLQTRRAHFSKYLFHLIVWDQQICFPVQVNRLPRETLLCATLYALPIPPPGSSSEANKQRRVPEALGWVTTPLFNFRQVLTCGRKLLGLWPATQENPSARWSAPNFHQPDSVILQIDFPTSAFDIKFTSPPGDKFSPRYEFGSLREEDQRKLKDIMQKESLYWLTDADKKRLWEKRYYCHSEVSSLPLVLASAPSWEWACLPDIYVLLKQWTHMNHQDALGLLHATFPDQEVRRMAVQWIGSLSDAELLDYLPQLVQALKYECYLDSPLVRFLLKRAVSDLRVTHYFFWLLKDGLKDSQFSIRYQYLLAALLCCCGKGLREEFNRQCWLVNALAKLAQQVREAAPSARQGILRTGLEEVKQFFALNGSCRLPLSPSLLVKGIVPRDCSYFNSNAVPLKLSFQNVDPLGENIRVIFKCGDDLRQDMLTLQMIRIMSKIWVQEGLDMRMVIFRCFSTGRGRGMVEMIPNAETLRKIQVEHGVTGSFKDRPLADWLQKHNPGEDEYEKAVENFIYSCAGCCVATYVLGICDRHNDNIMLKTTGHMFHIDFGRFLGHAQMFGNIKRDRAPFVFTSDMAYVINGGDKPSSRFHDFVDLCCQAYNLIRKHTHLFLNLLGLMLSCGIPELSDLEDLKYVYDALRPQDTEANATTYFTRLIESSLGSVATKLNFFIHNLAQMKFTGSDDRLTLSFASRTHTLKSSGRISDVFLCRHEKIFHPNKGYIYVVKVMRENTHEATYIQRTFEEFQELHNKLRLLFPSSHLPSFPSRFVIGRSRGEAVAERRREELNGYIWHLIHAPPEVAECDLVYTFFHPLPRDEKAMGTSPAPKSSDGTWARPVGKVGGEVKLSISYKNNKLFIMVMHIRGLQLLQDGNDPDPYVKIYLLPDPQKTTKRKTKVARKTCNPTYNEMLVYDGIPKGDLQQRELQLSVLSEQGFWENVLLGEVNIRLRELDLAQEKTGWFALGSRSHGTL
RET (human), P07949 [V804M], sequence (P07949 whole entry V804M, looked up): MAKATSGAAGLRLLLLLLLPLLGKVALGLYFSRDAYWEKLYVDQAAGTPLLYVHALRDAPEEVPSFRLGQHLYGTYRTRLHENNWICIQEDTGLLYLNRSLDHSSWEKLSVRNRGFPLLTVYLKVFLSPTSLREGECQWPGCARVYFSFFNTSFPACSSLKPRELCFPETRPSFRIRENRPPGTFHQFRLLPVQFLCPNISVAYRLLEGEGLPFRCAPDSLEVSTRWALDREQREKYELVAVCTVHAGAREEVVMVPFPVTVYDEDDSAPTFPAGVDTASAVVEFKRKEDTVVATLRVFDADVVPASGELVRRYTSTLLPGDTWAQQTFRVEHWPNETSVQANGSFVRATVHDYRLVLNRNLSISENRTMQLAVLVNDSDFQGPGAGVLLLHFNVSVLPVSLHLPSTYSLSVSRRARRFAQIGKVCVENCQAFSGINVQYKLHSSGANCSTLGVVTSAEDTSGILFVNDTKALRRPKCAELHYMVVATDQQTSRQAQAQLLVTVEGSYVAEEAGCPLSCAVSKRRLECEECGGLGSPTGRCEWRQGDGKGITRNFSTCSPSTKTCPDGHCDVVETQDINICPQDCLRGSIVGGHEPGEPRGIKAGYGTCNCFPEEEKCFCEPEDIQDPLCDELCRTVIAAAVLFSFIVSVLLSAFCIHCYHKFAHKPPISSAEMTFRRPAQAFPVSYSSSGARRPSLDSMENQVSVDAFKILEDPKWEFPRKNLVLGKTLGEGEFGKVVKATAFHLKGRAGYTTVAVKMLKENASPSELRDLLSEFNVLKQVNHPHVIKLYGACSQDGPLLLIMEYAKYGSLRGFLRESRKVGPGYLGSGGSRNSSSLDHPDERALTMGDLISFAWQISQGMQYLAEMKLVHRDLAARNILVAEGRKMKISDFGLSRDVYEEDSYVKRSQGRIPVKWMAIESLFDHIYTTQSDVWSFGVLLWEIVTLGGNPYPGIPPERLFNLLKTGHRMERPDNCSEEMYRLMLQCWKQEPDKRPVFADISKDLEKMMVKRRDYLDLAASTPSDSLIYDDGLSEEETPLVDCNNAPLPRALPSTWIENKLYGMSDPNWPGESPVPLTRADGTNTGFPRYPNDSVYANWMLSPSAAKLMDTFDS
EPHA1 (human), sequence (P21709 whole entry, looked up): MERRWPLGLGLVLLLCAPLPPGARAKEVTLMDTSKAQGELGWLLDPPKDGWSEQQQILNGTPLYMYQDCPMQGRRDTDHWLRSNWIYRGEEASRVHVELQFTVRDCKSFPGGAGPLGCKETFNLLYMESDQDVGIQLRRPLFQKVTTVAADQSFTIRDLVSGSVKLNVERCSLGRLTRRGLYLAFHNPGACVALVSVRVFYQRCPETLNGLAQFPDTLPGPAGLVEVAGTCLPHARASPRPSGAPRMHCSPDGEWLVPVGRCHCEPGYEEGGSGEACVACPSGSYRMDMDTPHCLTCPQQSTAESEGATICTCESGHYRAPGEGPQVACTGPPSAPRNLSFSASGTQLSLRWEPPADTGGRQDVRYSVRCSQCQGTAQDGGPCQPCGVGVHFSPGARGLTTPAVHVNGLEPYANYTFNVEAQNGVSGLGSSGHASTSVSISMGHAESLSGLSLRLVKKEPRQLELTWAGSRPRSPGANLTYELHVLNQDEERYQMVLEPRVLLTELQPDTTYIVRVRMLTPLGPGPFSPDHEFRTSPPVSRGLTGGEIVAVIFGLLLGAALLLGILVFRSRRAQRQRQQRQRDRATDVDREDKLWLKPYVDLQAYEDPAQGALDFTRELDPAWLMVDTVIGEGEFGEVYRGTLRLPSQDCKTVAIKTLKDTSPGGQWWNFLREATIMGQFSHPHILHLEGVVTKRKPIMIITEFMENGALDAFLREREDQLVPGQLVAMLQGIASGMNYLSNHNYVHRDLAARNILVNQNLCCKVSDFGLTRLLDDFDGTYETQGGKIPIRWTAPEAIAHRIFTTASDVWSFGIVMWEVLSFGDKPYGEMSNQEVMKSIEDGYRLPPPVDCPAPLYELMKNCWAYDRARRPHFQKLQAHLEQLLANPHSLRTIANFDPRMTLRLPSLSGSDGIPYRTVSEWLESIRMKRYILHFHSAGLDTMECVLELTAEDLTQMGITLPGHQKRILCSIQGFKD
SGK110 (human), sequence (P0C264 whole entry, looked up): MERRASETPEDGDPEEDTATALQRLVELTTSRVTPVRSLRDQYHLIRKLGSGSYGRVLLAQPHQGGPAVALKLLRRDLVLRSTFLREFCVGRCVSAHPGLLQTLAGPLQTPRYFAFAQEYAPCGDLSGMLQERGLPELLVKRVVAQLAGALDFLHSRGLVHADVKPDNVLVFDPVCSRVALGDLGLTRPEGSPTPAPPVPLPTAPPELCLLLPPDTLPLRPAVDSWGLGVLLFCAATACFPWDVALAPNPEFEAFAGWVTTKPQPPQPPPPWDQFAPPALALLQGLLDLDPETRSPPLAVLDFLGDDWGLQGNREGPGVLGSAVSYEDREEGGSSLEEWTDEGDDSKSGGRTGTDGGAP

A kinase still bound, per cent of control [1] of 100%, a kinase still bound, per cent of control [2] of 100% and a kinase still bound, per cent of control [3] of 100% were found for O=C1NC(=O)/C(=C/c2c[nH]c(=O)c(-c3ccc(N4CCNCC4)nc3)c2)S1 in this work. For the same compound, the kinase still bound, per cent of control [4] was 100%, the kinase still bound, per cent of control [5] was 90% and the kinase still bound, per cent of control [6] was 100%. For the same compound, the kinase still bound, per cent of control [7] was 100%, the kinase still bound, per cent of control [8] was 90% and the kinase still bound, per cent of control [9] was 68%. The kinase still bound, per cent of control [10] was 17%, the kinase still bound, per cent of control [11] was 73% and the kinase still bound, per cent of control [12] was 94%. It also gave a kinase still bound, per cent of control [13] of 54%, a kinase still bound, per cent of control [14] of 3.6% and a kinase still bound, per cent of control [15] of 85%. For the same compound, the kinase still bound, per cent of control [16] was 48%, the kinase still bound, per cent of control [17] was 0% and the kinase still bound, per cent of control [18] was 53%. For the same compound, the kinase still bound, per cent of control [19] was 86%, the kinase still bound, per cent of control [20] was 9.9% and the kinase still bound, per cent of control [21] was 15%. It also gave a kinase still bound, per cent of control [22] of 61%, a kinase still bound, per cent of control [23] of 74% and a kinase still bound, per cent of control [24] of 63%. The kinase still bound, per cent of control [25] was 53%, the kinase still bound, per cent of control [26] was 94% and the kinase still bound, per cent of control [27] was 49%. The kinase still bound, per cent of control [28] was 100%, the kinase still bound, per cent of control [29] was 76% and the kinase still bound, per cent of control [30] was 19%. The kinase still bound, per cent of control [31] was 88%, the kinase still bound, per cent of control [32] was 100% and the kinase still bound, per cent of control [33] was 100%. The kinase still bound, per cent of control [34] was 4.8%, the kinase still bound, per cent of control [35] was 100% and the kinase still bound, per cent of control [36] was 66%. The kinase still bound, per cent of control [37] was 86%, the kinase still bound, per cent of control [38] was 98% and the kinase still bound, per cent of control [39] was 83%. For the same compound, the kinase still bound, per cent of control [40] was 65%, the kinase still bound, per cent of control [41] was 92% and the kinase still bound, per cent of control [42] was 56%.

A kinase still bound, per cent of control [1] of 100%, a kinase still bound, per cent of control [2] of 93% and a kinase still bound, per cent of control [3] of 72% were found for CN1CCN(c2ccc(C(=O)Nc3ncc4c(n3)N(C)c3ccccc3C(=O)N4C)cc2)CC1 in this work. The kinase still bound, per cent of control [4] was 100%, the kinase still bound, per cent of control [5] was 99% and the kinase still bound, per cent of control [6] was 100%. The kinase still bound, per cent of control [7] was 90%, the kinase still bound, per cent of control [8] was 99% and the kinase still bound, per cent of control [9] was 100%. For the same compound, the kinase still bound, per cent of control [10] was 100%, the kinase still bound, per cent of control [11] was 100% and the kinase still bound, per cent of control [12] was 100%. The kinase still bound, per cent of control [13] was 100%, the kinase still bound, per cent of control [14] was 100% and the kinase still bound, per cent of control [15] was 100%. For the same compound, the kinase still bound, per cent of control [16] was 65%, the kinase still bound, per cent of control [17] was 100% and the kinase still bound, per cent of control [18] was 100%. The kinase still bound, per cent of control [19] was 100%, the kinase still bound, per cent of control [20] was 100% and the kinase still bound, per cent of control [21] was 90%. It also gave a kinase still bound, per cent of control [22] of 100%, a kinase still bound, per cent of control [23] of 93% and a kinase still bound, per cent of control [24] of 100%. It also gave a kinase still bound, per cent of control [25] of 100%, a kinase still bound, per cent of control [26] of 100% and a kinase still bound, per cent of control [27] of 100%. The kinase still bound, per cent of control [28] was 100%, the kinase still bound, per cent of control [29] was 87% and the kinase still bound, per cent of control [30] was 100%. It also gave a kinase still bound, per cent of control [31] of 100%, a kinase still bound, per cent of control [32] of 100% and a kinase still bound, per cent of control [33] of 100%. It also gave a kinase still bound, per cent of control [34] of 100%, a kinase still bound, per cent of control [35] of 100% and a kinase still bound, per cent of control [36] of 83%. For the same compound, the kinase still bound, per cent of control [37] was 96%, the kinase still bound, per cent of control [38] was 90% and the kinase still bound, per cent of control [39] was 100%. For the same compound, the kinase still bound, per cent of control [40] was 100%, the kinase still bound, per cent of control [41] was 100% and the kinase still bound, per cent of control [42] was 100%.
